What was measured:
[1] = system: mortality induced by histamine; assay: Effect on the mortality induced by histamine; assay type: in vivo, male albino guinea pigs (Dunkin-Hartley); details: Cavia porcellus, po, 1 h; p.o., 60 min before 1.25 mg/kg i.v. histamine dihydrochloride; guinea pig; read-out: Mortality induced by hystamine ED50 p.o.
Description: The method described by Romer D. et al. (Med. Welt. 17,791, 1966) was followed and the tests were carried out on male albino guinea pigs (Dunkin-Hartley), weighing 350 to 450 g which were kept in cages with a grid floor, on an empty stomach for 24 hours with water ad libitum. The compounds under examination have been orally administered to the animals, dissolved in 0.5% carboxymethylcellulose, 60 minutes before intravenous administration of 1.25 mg/kg of histamine dihydrochloride in saline solution. In the control animals, treated with carboxymethylcellulose, the intravenous administration of histamine dihydrochloride induced a 100% mortality.
It has been evaluated ED50, which corresponds to the amount of the compound able to inhibit to 50% the mortality induced by histamine: estimation of ED50 has been made applying the `probit` method (Finney D. J. "Statistical method in biological assay", pg 512,1957).

[2] = system: mortality induced by compound 48/80; assay: Mortality inhibition by compound 48/80; assay type: in vivo, Sprague Dawley Nos male rats; details: ip, half an hour before 2 mg/kg i.v. compound 48/80; rat; 4 hours observation
Description: For evaluating the protection to the mortality induced by compound 48/80 administration the method described by C. J. E. Niemegeers et al. (Arch. Int. Pharmacodyn, 234,164,1978) was followed.
Sprague Dawley Nos male rats (Nossan, Correzzana, Milano) weighing 140 to 150 g, divided into groups of 10 animals each, on an empty stomach for 24 hours with water "ad libitum", were kept in cages with a grid floor, and treated intravenously with 2 mg/kg of compound 48/80 (1 ml/rat).
The animals were kept under observation for 4 hours taking note of their mortality. The results were expressed as the number of animals dead with respect to the number of treated animals. Compounds under examination or the carrier were administered half an hour before administration of compound 48/80 by intraperitoneal route, dissolved in H2 O (5 ml/kg). The experimental data were submitted to the variance analysis and to subsequent multiple comparisons according to Dunnet (D. J. Finney, in "Statistical Methods in Biological assay", Ed. L. Griffin and Co. Ltd., pag. 152,1957, Edition Ames Iowa, 1971).

[3] = Evaluation of the lethal dose50 (LD50), acute toxicity; details: in vivo, ip; mouse; 14 days observation
Description: Swiss Nos (Nossan, Correzzana, Milano) mice, weighing 18 to 20 g each, on an empty stomach for 18 hours with water "ad libitum" and kept in cages with grid floor, were used. The animals, divided into groups of 10 animals each, (5M+5F) were treated intraperitoneally (10 ml/kg) with the compounds under examination dissolved in water or suspended in 0.5% carboxymethylcellulose. The animals were kept in the cages and the mortality occurred within the following 6 hours was noted down. At the expiring of the 6 hours the animals were allowed to eat up to the end of the experimentation which lasted 14 days. During this period all the toxic symptoms and the mortality occuring were noted.
The animals which died during the test period and those which were sacrificed at the end of the same, underwent autopsy for a macroscopic examination of their main organs. The experimental data were statistically compared with the X^2 method and LD50 was extrapolated by the `probit` method.

| Compound | ED50 [1] [mg/kg] | ED50 [2] [mg/kg] | LD50 at 336 h [3] [mg/kg] |
| --- | --- | --- | --- |
| CCOCCn1c(CCCN(C)C)nc2cccnc21 [Example 1, 3-(2-Ethoxyethyl)-2-(3-dimethylaminopropyl)-3H-imidazo [4,5-b] pyridine] | 0.03 | 0.5 | > 100 |
| CCOCCn1c(CCN(C)C)nc2cccnc21 [Example 2, 3-(2-Ethoxyethyl)-2-(2-dimethylaminoethyl)-3 H-imidazo [4,5-b] pyridine] | 0.025 | 0.3 | > 100 |
| CCOCCn1c(CCCN2CCOCC2)nc2cccnc21.O=C(O)/C=C/C(=O)O.O=C(O)/C=C/C(=O)O [Example 9, 3-(2-Ethoxyethyl)-2-[3-(morpholin-4-yl)propyl]-3H-imidazo [4,5-b] pyridine difumarate] | 0.003 | 0.5 | > 100 |
| CC(C)(C)c1ccc(C(O)CCCN2CCC(C(O)(c3ccccc3)c3ccccc3)CC2)cc1 (stereo not drawn) [Terfenadine, reference compound] | 0.436 | 1.09 | 620 |

Reference: US5011838A, “Pharmacologically active 2-substituted 3-(2-ethoxyethyl) imidazo[4,5-b]pyridines and pharmaceutical compositions containing them” (Dompe Farmaceutici S.p.A., priority 1989, dated 1991)
